In ChEMBL document CHEMBL5620385, “Orally bioavailable styryl derivative of rohitukine-N-oxide inhibits CDK9/T1 and the growth of pancreatic cancer cells” (Eur J Med Chem, 2023):

Tests used:
HCT-116 [1] = assay: Antiproliferative activity against human HCT-116 cells assessed as cell growth inhibition at 10 uM incubated for 48 hrs by MTT assay relative to control; format: functional
[2] = target: Cyclin-dependent kinase 7/ cyclin H (Homo sapiens, UniProt P50613); assay: Inhibition of CDK7/cyclin H (unknown origin) by ADP-Glo assay; format: protein-complex assay
Cyclin-dependent kinase 7/ cyclin H, sequence (P51946 whole entry): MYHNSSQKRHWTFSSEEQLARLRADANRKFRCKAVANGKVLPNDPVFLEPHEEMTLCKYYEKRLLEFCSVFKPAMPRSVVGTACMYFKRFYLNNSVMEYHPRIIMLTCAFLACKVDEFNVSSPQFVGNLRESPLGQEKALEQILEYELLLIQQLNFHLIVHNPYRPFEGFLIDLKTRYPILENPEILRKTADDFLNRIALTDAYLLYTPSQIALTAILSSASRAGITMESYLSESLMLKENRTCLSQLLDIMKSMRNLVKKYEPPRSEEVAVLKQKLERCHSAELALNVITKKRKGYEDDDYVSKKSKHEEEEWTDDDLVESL
Cyclin-dependent kinase 7/ cyclin H, sequence (P50613 whole entry): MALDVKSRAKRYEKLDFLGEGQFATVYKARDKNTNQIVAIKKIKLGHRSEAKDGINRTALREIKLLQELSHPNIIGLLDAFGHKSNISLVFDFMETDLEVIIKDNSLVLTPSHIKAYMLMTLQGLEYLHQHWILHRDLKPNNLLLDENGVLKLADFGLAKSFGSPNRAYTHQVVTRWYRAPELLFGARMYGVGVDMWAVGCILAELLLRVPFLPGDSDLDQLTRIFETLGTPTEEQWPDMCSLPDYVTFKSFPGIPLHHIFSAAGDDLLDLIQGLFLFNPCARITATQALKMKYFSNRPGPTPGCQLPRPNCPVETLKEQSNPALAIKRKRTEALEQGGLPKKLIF

[3] = Volume of distribution in BALB/c mouse at 5 mg/kg, iv measured for 6 hrs by LC-MS/MS analysis; format: ADME, organism-based; conditions: in vivo
MIA PaCa-2 [4] = assay: Induction of mitochondrial membrane potential loss in human MIA PaCa-2 cells incubated for 48 hrs by Rhodamine-123 dye based analysis; format: functional, cell-based
[5] = AUC(0 to infinity) in BALB/c mouse at 5 mg/kg, iv measured for 6 hrs by LC-MS/MS analysis; format: ADME, organism-based; conditions: in vivo
MIA PaCa-2 [6] = assay: Induction of apoptosis in human MIA PaCa-2 cells assessed as apoptotic body formation incubated for 48 hrs by DAPI staining based analysis; format: functional, cell-based
[7] = Antiproliferative activity against HEK293 cells assessed as cell growth inhibition incubated for 48 hrs by MTT assay; format: toxicity, cell-based; conditions: human
[8] = AUC(0 to t) in BALB/c mouse at 30 mg/kg, po measured for 6 hrs by LC-MS/MS analysis; format: ADME, organism-based; conditions: in vivo
[9] = Cmax in BALB/c mouse at 30 mg/kg, po measured for 6 hrs by LC-MS/MS analysis; format: ADME, organism-based; conditions: in vivo
[10] = target: Cyclin-dependent kinase 7/ cyclin H (Homo sapiens) (UniProt P51946+P50613); assay: Inhibition of CDK7/cyclin H (unknown origin) at 10 uM by ADP-Glo assay relative to control; format: protein-complex assay
[11] = Tmax in BALB/c mouse at 30 mg/kg, po measured for 6 hrs by LC-MS/MS analysis; format: ADME, organism-based; conditions: in vivo
[12] = C0 in BALB/c mouse at 5 mg/kg, iv measured for 6 hrs by LC-MS/MS analysis; format: ADME, organism-based; conditions: in vivo
CDK9/cyclin T1 = CDK9/cyclin T1 (Homo sapiens, UniProt P50750); assay: Inhibition of CDK9/cyclin T1 (unknown origin) by ADP-Glo assay; format: protein-complex assay
CDK9/cyclin T1, sequence (O60563 whole entry): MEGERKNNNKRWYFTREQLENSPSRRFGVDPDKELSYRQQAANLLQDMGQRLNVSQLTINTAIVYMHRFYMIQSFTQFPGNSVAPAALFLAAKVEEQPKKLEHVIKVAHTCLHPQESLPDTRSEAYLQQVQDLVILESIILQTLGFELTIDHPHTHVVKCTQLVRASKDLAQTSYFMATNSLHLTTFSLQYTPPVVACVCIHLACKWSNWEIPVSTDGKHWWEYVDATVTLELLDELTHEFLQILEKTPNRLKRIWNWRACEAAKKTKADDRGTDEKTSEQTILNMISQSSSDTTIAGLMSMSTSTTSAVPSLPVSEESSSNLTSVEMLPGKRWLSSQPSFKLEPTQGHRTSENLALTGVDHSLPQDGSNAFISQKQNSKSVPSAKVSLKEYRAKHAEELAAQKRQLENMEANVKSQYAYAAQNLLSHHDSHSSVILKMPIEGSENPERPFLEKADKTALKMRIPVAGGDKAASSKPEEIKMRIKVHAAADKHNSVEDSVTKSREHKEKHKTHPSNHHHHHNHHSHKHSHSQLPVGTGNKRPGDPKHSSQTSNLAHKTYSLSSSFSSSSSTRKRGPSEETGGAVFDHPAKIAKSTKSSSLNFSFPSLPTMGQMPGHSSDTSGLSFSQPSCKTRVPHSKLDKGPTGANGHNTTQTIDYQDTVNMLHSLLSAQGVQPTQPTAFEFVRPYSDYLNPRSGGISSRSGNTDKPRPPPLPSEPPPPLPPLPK
CDK9/cyclin T1, sequence (P50750 whole entry): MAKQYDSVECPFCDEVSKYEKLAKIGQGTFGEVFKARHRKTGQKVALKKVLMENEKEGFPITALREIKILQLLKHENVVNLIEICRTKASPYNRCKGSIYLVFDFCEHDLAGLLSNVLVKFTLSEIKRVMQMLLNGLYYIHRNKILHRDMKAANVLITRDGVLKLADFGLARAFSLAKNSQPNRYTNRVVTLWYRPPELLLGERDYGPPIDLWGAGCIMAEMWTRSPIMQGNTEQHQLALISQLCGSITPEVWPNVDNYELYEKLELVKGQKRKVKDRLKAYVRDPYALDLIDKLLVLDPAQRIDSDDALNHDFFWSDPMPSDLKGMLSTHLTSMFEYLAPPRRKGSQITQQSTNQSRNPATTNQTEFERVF

[13] = target: CDK9/Cyclin K (Homo sapiens) (UniProt P50750+O75909); assay: Inhibition of CDK9/cyclin K (unknown origin) at 10 uM by ADP-Glo assay relative to control; format: protein-complex assay
[14] = AUC(0 to t) in BALB/c mouse at 5 mg/kg, iv measured for 6 hrs by LC-MS/MS analysis; format: ADME, organism-based; conditions: in vivo
[15] = Clearance in BALB/c mouse at 30 mg/kg, po measured for 6 hrs by LC-MS/MS analysis; format: ADME, organism-based; conditions: in vivo
MIA PaCa-2 [16] = assay: Antiproliferative activity against human MIA PaCa-2 cells assessed as cell growth inhibition at 10 uM incubated for 48 hrs by MTT assay relative to control; format: functional
MIA PaCa-2 [17] = assay: Antiproliferative activity against human MIA PaCa-2 cells assessed as cell growth inhibition incubated for 48 hrs by MTT assay; format: functional
[18] = Half life in BALB/c mouse at 30 mg/kg, po measured for 6 hrs by LC-MS/MS analysis; format: ADME, organism-based; conditions: in vivo
MIA PaCa-2 [19] = assay: Induction of apoptosis in human MIA PaCa-2 cells assessed as chromatin condensation incubated for 48 hrs by DAPI staining based analysis; format: functional, cell-based
[20] = Volume of distribution in BALB/c mouse at 30 mg/kg, po measured for 6 hrs by LC-MS/MS analysis; format: ADME, organism-based; conditions: in vivo
[21] = Clearance in BALB/c mouse at 5 mg/kg, iv measured for 6 hrs by LC-MS/MS analysis; format: ADME, organism-based; conditions: in vivo
CDK9/Cyclin K = CDK9/Cyclin K (Homo sapiens, UniProt P50750); assay: Inhibition of CDK9/cyclin K (unknown origin) by ADP-Glo assay; format: protein-complex assay
CDK9/Cyclin K, sequence (P50750 whole entry): as above
CDK9/Cyclin K, sequence (O75909 whole entry, further chain): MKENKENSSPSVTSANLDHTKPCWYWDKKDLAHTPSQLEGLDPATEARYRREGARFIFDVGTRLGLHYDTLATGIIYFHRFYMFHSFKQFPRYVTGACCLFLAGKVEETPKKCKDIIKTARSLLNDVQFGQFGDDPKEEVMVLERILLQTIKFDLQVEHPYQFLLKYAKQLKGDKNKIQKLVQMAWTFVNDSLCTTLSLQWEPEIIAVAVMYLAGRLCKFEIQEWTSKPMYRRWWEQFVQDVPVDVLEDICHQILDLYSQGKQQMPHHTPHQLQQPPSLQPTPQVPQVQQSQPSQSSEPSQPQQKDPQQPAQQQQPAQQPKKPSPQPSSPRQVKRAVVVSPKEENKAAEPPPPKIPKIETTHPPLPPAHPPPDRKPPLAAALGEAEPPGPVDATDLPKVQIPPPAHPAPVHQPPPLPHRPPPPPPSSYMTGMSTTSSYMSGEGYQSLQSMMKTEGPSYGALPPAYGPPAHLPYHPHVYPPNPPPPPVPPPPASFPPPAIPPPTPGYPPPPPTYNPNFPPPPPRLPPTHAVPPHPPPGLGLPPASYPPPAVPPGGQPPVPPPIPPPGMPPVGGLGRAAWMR

MIA PaCa-2 [22] = assay: Induction of intracellular ROS generation in human MIA PaCa-2 cells incubated for 48 hrs by DCFDA dye based analysis; format: functional, cell-based
[23] = Antiproliferative activity against HEK293 cells assessed as cell growth inhibition at 10 uM incubated for 48 hrs by MTT assay relative to control; format: toxicity, cell-based; conditions: human
[24] = AUC(0 to infinity) in BALB/c mouse at 30 mg/kg, po measured for 6 hrs by LC-MS/MS analysis; format: ADME, organism-based; conditions: in vivo
HCT-116 [25] = assay: Antiproliferative activity against human HCT-116 cells assessed as cell growth inhibition incubated for 48 hrs by MTT assay; format: functional
[26] = Metabolic stability in human liver microsomes assessed as drug metabolism at 10 uM measured after 30 mins in presence of NADPH by HPLC analysis; format: ADME, Microsome; conditions: read-out: Drug metabolism
[27] = Half life in BALB/c mouse at 5 mg/kg, iv measured for 6 hrs by LC-MS/MS analysis; format: ADME, organism-based; conditions: in vivo
[28] = Metabolic stability in mouse liver microsomes assessed as drug metabolism at 10 uM measured after 30 mins in presence of NADPH by HPLC analysis; format: ADME, Microsome; conditions: read-out: Drug metabolism

IC50 [2]: 0.54 µM
Vd [3]: 0.8 L/kg
AUC(0-inf) [5]: 957 ng·h/mL
AUC(0-t) at 6 h [8]: 400 ng·h/mL
Cmax [9]: 817 ng/mL
inhibition [10]: 28.7%
Tmax [11]: 30 min
C0 at 6 h [12]: 19100 ng/mL
IC50 (CDK9/cyclin T1): 0.15 µM
inhibition [13]: 41.7%
AUC(0-t) at 6 h [14]: 956 ng·h/mL
CL/F [15]: 1250 mL/min/kg
GI50 (MIA PaCa-2 [17]): 5.53 µM
half-life [18]: 9.6 min
Vd [20]: 17 L/kg
clearance [21]: 86.7 mL/min/kg
IC50 (CDK9/Cyclin K): 2.28 µM
AUC(0-inf) [24]: 401 ng·h/mL
GI50 (HCT-116 [25]): 2.53 µM
metabolised at 0.5 h, 10 µM [26]: 16%
half-life [27]: 6 min
metabolised at 0.5 h, 10 µM [28]: 16%
Compound: COc1cc(O)c2c(=O)cc(/C=C/c3c(F)cccc3Cl)oc2c1[C@H]1CC[N+](C)([O-])C[C@H]1O (stereo not given in full)
inhibition at 10 µM (HCT-116 [1]): 25.2%
Activity (MIA PaCa-2 [4]): Dose-Dependent Effect
Activity (MIA PaCa-2 [6]): Dose-Dependent Effect
GI50 at 48 h [7]: 81.5 µM
inhibition at 10 µM (MIA PaCa-2 [16]): 24.9%
Activity (MIA PaCa-2 [19]): Dose-Dependent Effect
Activity (MIA PaCa-2 [22]): Dose-Dependent Effect
inhibition at 48 h, 10 µM [23]: 14.9%
